Measured values from patent publication US10251395B2, “Substituted furano-/thienocycloalkylamino-2-pyrimidine derivatives and use thereof for controlling undesired plant growth” (Bayer CropScience Aktiengesellschaft, priority 2015, dated 2019).

Assays:
Assay type in all cases: in vivo
[1] = test system: Viola tricolor; assay: Pre-emergence herbicidal effect; details: scored visually after 3 weeks
Text: (§1) Seeds of monocotyledonous and dicotyledonous weed plants and crop plants are laid out in wood-fiber pots in sandy loam and covered with soil. The compounds of the invention, formulated in the form of wettable powders (WP) or as emulsion concentrates (EC), are then applied to the surface of the covering soil as aqueous suspension or emulsion at a water application rate equating to 600 to 800 L/ha with addition of 0.2% wetting agent.
(§2) After the treatment, the pots are placed in a greenhouse and kept under good growth conditions for the trial plants. The damage to the test plants is scored visually after a test period of 3 weeks by comparison with untreated controls (herbicidal activity in percent (%): 100% activity=the plants have died, 0% activity=like control plants).
(§3) • ABUTH: Abutilon theophrasti ALOMY: Alopecurus myosuroides • AMARE: Amaranthus retroflexus AVEFA: Avena fatua • CYPES: Cyperus esculentus ECHCG: Echinochloa crus-galli • LOLMU: Lolium multiflorum MATIN: Matricaria inodora • PHBPU: Ipomoea purpurea POLCO: Polygonum convolvulus • SETVI: Setaria viridis STEME: Stellaria media • VERPE: Veronica persica VIOTR: Viola tricolor

[2] = test system: Stellaria media; assay: Pre-emergence herbicidal effect; details: scored visually after 3 weeks
Text: as §1, §2, §3

[3] = test system: Matricaria inodora; assay: Pre-emergence herbicidal effect; details: scored visually after 3 weeks
Text: as §1, §2, §3

[4] = test system: Amaranthus retroflexus; assay: Pre-emergence herbicidal effect; details: scored visually after 3 weeks
Text: as §1, §2, §3

[5] = test system: Abutilon theophrasti; assay: Post-emergence herbicidal effect; details: assessed visually after about 3 weeks vs untreated controls
Text: (§4) • ABUTH: Abutilon theophrasti ALOMY: Alopecurus myosuroides • AMARE: Amaranthus retroflexus AVEFA: Avena fatua • CYPES: Cyperus esculentus ECHCG: Echinochloa crus-galli • LOLMU: Lolium multiflorum MATIN: Matricaria inodora • PHBPU: Ipomoea purpurea POLCO: Polygonum convolvulus • SETVI: Setaria viridis STEME: Stellaria media • VERPE: Veronica persica VIOTR: Viola tricolor Seeds of monocotyledonous and dicotyledonous weed and crop plants are laid out in sandy loam in wood-fiber pots, covered with soil and cultivated in a greenhouse under good growth conditions. 2 to 3 weeks after sowing, the test plants are treated at the one-leaf stage. The compounds of the invention, formulated in the form of wettable powders (WP) or as emulsion concentrates (EC), are then sprayed onto the green parts of the plants as aqueous suspension or emulsion at a water application rate equating to 600 to 800 L/ha with addition of 0.2% wetting agent. After the test plants have been left to stand in the greenhouse under optimal growth conditions for about 3 weeks, the action of the preparations is assessed visually in comparison to untreated controls (herbicidal action in percent (%): 100% activity=the plants have died, 0% activity=like control plants).

[6] = test system: Stellaria media; assay: Post-emergence herbicidal effect; details: assessed visually after about 3 weeks vs untreated controls
Text: as §4

[7] = test system: Setaria viridis; assay: Pre-emergence herbicidal effect; details: scored visually after 3 weeks
Text: as §1, §2, §3

[8] = test system: Alopecurus myosuroides; assay: Pre-emergence herbicidal effect; details: scored visually after 3 weeks
Text: as §1, §2, §3

[9] = test system: Veronica persica; assay: Pre-emergence herbicidal effect; details: scored visually after 3 weeks
Text: as §1, §2, §3

[10] = test system: Echinochloa crus-galli; assay: Pre-emergence herbicidal effect; details: scored visually after 3 weeks
Text: as §1, §2, §3

[11] = test system: Setaria viridis; assay: Post-emergence herbicidal effect; details: assessed visually after about 3 weeks vs untreated controls
Text: as §4

[12] = test system: Ipomoea purpurea; assay: Post-emergence herbicidal effect; details: 320 g/ha, assessed visually after about 3 weeks vs untreated controls
Text: as §4

[13] = test system: Viola tricolor; assay: Post-emergence herbicidal effect; details: assessed visually after about 3 weeks vs untreated controls
Text: as §4

[14] = test system: Veronica persica; assay: Post-emergence herbicidal effect; details: assessed visually after about 3 weeks vs untreated controls
Text: as §4

[15] = test system: Echinochloa crus-galli; assay: Post-emergence herbicidal effect; details: 320 g/ha, assessed visually after about 3 weeks vs untreated controls
Text: as §4

[16] = test system: Amaranthus retroflexus; assay: Post-emergence herbicidal effect; details: assessed visually after about 3 weeks vs untreated controls
Text: as §4

[17] = test system: Lolium multiflorum; assay: Pre-emergence herbicidal effect; details: Dosage 320 g/ha, scored visually after 3 weeks
Text: as §1, §2, §3

[18] = test system: Polygonum convolvulus; assay: Pre-emergence herbicidal effect; details: scored visually after 3 weeks
Text: as §1, §2, §3

SMILES: Nc1nc(NC2CCCc3occc32)ncc1C(F)(F)F (racemic) [compound 7]
- VIOTR pre-emergence efficacy (herbicidal activity) ([1]; Dosage 320 g/ha): 100%
- STEME pre-emergence efficacy (herbicidal activity) ([2]; Dosage 80 g/ha): 80%
- STEME pre-emergence efficacy (herbicidal activity) ([2]; Dosage 320 g/ha): 90%
- MATIN pre-emergence efficacy (herbicidal activity) ([3]; Dosage 320 g/ha): 90%
- AMARE pre-emergence efficacy (herbicidal activity) ([4]; Dosage 320 g/ha): 100%
- post-emergence efficacy ABUTH ([5]; 320 g/ha): 40%
- post-emergence efficacy STEME ([6]; 320 g/ha): 80%

SMILES: Nc1nc(NC2CCc3cc(Cl)sc32)ncc1C(F)(F)F (racemic) [compound 48]
- SETVI pre-emergence efficacy (herbicidal activity) ([7]; Dosage 320 g/ha): 80%
- VIOTR pre-emergence efficacy (herbicidal activity) ([1]; Dosage 80 g/ha): 100%
- VIOTR pre-emergence efficacy (herbicidal activity) ([1]; Dosage 320 g/ha): 100%
- STEME pre-emergence efficacy (herbicidal activity) ([2]; Dosage 320 g/ha): 100%
- ALOMY pre-emergence efficacy (herbicidal activity) ([8]; Dosage 320 g/ha): 80%
- VERPE pre-emergence efficacy (herbicidal activity) ([9]; Dosage 80 g/ha): 100%
- VERPE pre-emergence efficacy (herbicidal activity) ([9]; Dosage 320 g/ha): 100%
- ECHCG pre-emergence efficacy (herbicidal activity) ([10]; Dosage 80 g/ha): 100%
- ECHCG pre-emergence efficacy (herbicidal activity) ([10]; Dosage 320 g/ha): 100%
- MATIN pre-emergence efficacy (herbicidal activity) ([3]; Dosage 80 g/ha): 80%
- MATIN pre-emergence efficacy (herbicidal activity) ([3]; Dosage 320 g/ha): 90%
- AMARE pre-emergence efficacy (herbicidal activity) ([4]; Dosage 320 g/ha): 100%
- post-emergence efficacy SETVI ([11]; 80 g/ha): 80%
- post-emergence efficacy SETVI ([11]; 320 g/ha): 90%
- post-emergence efficacy PHBPU [12]: 80%
- post-emergence efficacy VIOTR ([13]; 80 g/ha): 80%
- post-emergence efficacy VIOTR ([13]; 320 g/ha): 90%
- post-emergence efficacy STEME ([6]; 320 g/ha): 90%
- post-emergence efficacy VERPE ([14]; 320 g/ha): 80%
- post-emergence efficacy ECHCG [15]: 100%
- post-emergence efficacy AMARE ([16]; 80 g/ha): 80%
- post-emergence efficacy AMARE ([16]; 320 g/ha): 90%

SMILES: CS(=O)(=O)c1cnc(NC2CCc3cc(Cl)sc32)nc1N (racemic) [compound 50]
- SETVI pre-emergence efficacy (herbicidal activity) ([7]; Dosage 320 g/ha): 100%
- LOLMU pre-emergence efficacy (herbicidal activity) [17]: 80%
- POLCO pre-emergence efficacy (herbicidal activity) ([18]; Dosage 320 g/ha): 100%
- VIOTR pre-emergence efficacy (herbicidal activity) ([1]; Dosage 80 g/ha): 80%
- VIOTR pre-emergence efficacy (herbicidal activity) ([1]; Dosage 320 g/ha): 100%
- STEME pre-emergence efficacy (herbicidal activity) ([2]; Dosage 80 g/ha): 100%
- STEME pre-emergence efficacy (herbicidal activity) ([2]; Dosage 320 g/ha): 100%
- VERPE pre-emergence efficacy (herbicidal activity) ([9]; Dosage 80 g/ha): 100%
- VERPE pre-emergence efficacy (herbicidal activity) ([9]; Dosage 320 g/ha): 100%
- ECHCG pre-emergence efficacy (herbicidal activity) ([10]; Dosage 80 g/ha): 90%
- ECHCG pre-emergence efficacy (herbicidal activity) ([10]; Dosage 320 g/ha): 100%
- MATIN pre-emergence efficacy (herbicidal activity) ([3]; Dosage 80 g/ha): 90%
- MATIN pre-emergence efficacy (herbicidal activity) ([3]; Dosage 320 g/ha): 90%
- AMARE pre-emergence efficacy (herbicidal activity) ([4]; Dosage 80 g/ha): 100%
- AMARE pre-emergence efficacy (herbicidal activity) ([4]; Dosage 320 g/ha): 100%
- post-emergence efficacy VIOTR ([13]; 80 g/ha): 90%
- post-emergence efficacy VIOTR ([13]; 320 g/ha): 100%
- post-emergence efficacy STEME ([6]; 320 g/ha): 100%
- post-emergence efficacy VERPE ([14]; 80 g/ha): 80%
- post-emergence efficacy VERPE ([14]; 320 g/ha): 90%
- post-emergence efficacy AMARE ([16]; 80 g/ha): 80%
- post-emergence efficacy AMARE ([16]; 320 g/ha): 90%

SMILES: CC(=O)c1c(N)nc(NC2CCCc3sc(C)cc32)nc1C(F)(F)F (racemic) [compound 268]
- SETVI pre-emergence efficacy (herbicidal activity) ([7]; Dosage 80 g/ha): 90%
- SETVI pre-emergence efficacy (herbicidal activity) ([7]; Dosage 320 g/ha): 90%
- VIOTR pre-emergence efficacy (herbicidal activity) ([1]; Dosage 80 g/ha): 80%
- VIOTR pre-emergence efficacy (herbicidal activity) ([1]; Dosage 320 g/ha): 90%
- STEME pre-emergence efficacy (herbicidal activity) ([2]; Dosage 80 g/ha): 90%
- STEME pre-emergence efficacy (herbicidal activity) ([2]; Dosage 320 g/ha): 100%
- ALOMY pre-emergence efficacy (herbicidal activity) ([8]; Dosage 80 g/ha): 80%
- ALOMY pre-emergence efficacy (herbicidal activity) ([8]; Dosage 320 g/ha): 90%
- VERPE pre-emergence efficacy (herbicidal activity) ([9]; Dosage 80 g/ha): 100%
- VERPE pre-emergence efficacy (herbicidal activity) ([9]; Dosage 320 g/ha): 100%
- MATIN pre-emergence efficacy (herbicidal activity) ([3]; Dosage 320 g/ha): 90%
- AMARE pre-emergence efficacy (herbicidal activity) ([4]; Dosage 80 g/ha): 100%
- AMARE pre-emergence efficacy (herbicidal activity) ([4]; Dosage 320 g/ha): 100%
- post-emergence efficacy SETVI ([11]; 320 g/ha): 80%
- post-emergence efficacy VIOTR ([13]; 80 g/ha): 80%
- post-emergence efficacy VIOTR ([13]; 320 g/ha): 80%
- post-emergence efficacy STEME ([6]; 80 g/ha): 100%
- post-emergence efficacy STEME ([6]; 320 g/ha): 100%
- post-emergence efficacy VERPE ([14]; 80 g/ha): 80%
- post-emergence efficacy VERPE ([14]; 320 g/ha): 80%

SMILES: Cc1cc2c(s1)CCCC2Nc1ncc(-c2cccc(C(F)(F)F)c2)c(N)n1 (racemic) [compound 294]
- LOLMU pre-emergence efficacy (herbicidal activity) [17]: 100%
- POLCO pre-emergence efficacy (herbicidal activity) ([18]; Dosage 80 g/ha): 70%
- POLCO pre-emergence efficacy (herbicidal activity) ([18]; Dosage 320 g/ha): 80%
- VIOTR pre-emergence efficacy (herbicidal activity) ([1]; Dosage 80 g/ha): 80%
- VIOTR pre-emergence efficacy (herbicidal activity) ([1]; Dosage 320 g/ha): 90%
- STEME pre-emergence efficacy (herbicidal activity) ([2]; Dosage 80 g/ha): 100%
- STEME pre-emergence efficacy (herbicidal activity) ([2]; Dosage 320 g/ha): 100%
- ALOMY pre-emergence efficacy (herbicidal activity) ([8]; Dosage 80 g/ha): 70%
- ALOMY pre-emergence efficacy (herbicidal activity) ([8]; Dosage 320 g/ha): 100%
- VERPE pre-emergence efficacy (herbicidal activity) ([9]; Dosage 80 g/ha): 100%
- VERPE pre-emergence efficacy (herbicidal activity) ([9]; Dosage 320 g/ha): 100%
- MATIN pre-emergence efficacy (herbicidal activity) ([3]; Dosage 80 g/ha): 90%
- MATIN pre-emergence efficacy (herbicidal activity) ([3]; Dosage 320 g/ha): 100%
- post-emergence efficacy ABUTH ([5]; 80 g/ha): 60%
- post-emergence efficacy ABUTH ([5]; 320 g/ha): 70%
- post-emergence efficacy VERPE ([14]; 320 g/ha): 90%
- post-emergence efficacy AMARE ([16]; 80 g/ha): 70%
- post-emergence efficacy AMARE ([16]; 320 g/ha): 70%

SMILES: Cc1cc2c(s1)CCCC2Nc1nc(N)c(S(C)(=O)=O)c(C(F)(F)F)n1 (racemic) [compound 298]
- POLCO pre-emergence efficacy (herbicidal activity) ([18]; Dosage 320 g/ha): 50%
- VIOTR pre-emergence efficacy (herbicidal activity) ([1]; Dosage 80 g/ha): 90%
- VIOTR pre-emergence efficacy (herbicidal activity) ([1]; Dosage 320 g/ha): 100%
- STEME pre-emergence efficacy (herbicidal activity) ([2]; Dosage 80 g/ha): 100%
- STEME pre-emergence efficacy (herbicidal activity) ([2]; Dosage 320 g/ha): 100%
- ALOMY pre-emergence efficacy (herbicidal activity) ([8]; Dosage 320 g/ha): 90%
- VERPE pre-emergence efficacy (herbicidal activity) ([9]; Dosage 80 g/ha): 100%
- VERPE pre-emergence efficacy (herbicidal activity) ([9]; Dosage 320 g/ha): 100%
- MATIN pre-emergence efficacy (herbicidal activity) ([3]; Dosage 320 g/ha): 100%
- AMARE pre-emergence efficacy (herbicidal activity) ([4]; Dosage 320 g/ha): 100%
- post-emergence efficacy VIOTR ([13]; 80 g/ha): 80%
- post-emergence efficacy VIOTR ([13]; 320 g/ha): 80%
- post-emergence efficacy AMARE ([16]; 80 g/ha): 70%
- post-emergence efficacy AMARE ([16]; 320 g/ha): 90%
